IC50 data for 23 compounds are collected here from patent publication US8895581B2, “1H-imidazo[4,5-c]quinolines” (Boehringer Ingelheim International GmbH, priority 2010, dated 2014).

Sequence of Recombinant human PDK1 enzyme (aa 52-556) (O15530 52-556): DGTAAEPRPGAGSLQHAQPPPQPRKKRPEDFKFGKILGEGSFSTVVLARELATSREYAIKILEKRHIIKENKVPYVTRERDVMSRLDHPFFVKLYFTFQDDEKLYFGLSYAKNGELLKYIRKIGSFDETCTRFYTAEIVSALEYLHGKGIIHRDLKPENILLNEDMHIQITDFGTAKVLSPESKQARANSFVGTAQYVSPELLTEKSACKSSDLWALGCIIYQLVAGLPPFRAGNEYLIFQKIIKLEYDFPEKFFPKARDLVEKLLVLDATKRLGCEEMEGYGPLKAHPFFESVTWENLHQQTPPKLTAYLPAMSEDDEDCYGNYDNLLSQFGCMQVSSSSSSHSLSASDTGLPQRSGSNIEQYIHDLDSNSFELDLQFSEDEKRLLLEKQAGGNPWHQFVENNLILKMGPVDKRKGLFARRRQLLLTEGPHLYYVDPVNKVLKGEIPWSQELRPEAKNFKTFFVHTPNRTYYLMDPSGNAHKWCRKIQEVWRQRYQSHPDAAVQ

The target in the test is Recombinant human PDK1 enzyme (aa 52-556) (Homo sapiens (Human), UniProt O15530). As to the kind of experiment: PDK1 kinase assay. Type of test: biochemical. To be noted: 25 μM ATP solution with gamma-P33-ATP, PDKtide substrate, 90 min at RT. Here is the method:
The activity of the compounds according to the invention on the kinase PDK1 which inhibits the signal transduction pathway is determined in an in vitro kinase assay with recombinantly prepared protein:
Recombinant human PDK1 enzyme (aa 52-556) linked at its N-terminal end to His6 is isolated from baculovirus-infected insect cells. Purified enzyme may be obtained for example from the University of Dundee, Scotland. The following components are combined in a well of a 96-well round-based dish (Greiner bio-one, No. 650101): • 1. 15 μL of compound to be tested in varying concentrations (e.g. starting at 10 μM, and diluted in steps of 1:5) in APT buffer (50 mM Tris/Cl pH7.5; 0.05% β-mercaptoethanol; 10 mM Mg-acetate; 0.0166% Tween 20; 3.33% DMSO) • 2. 15 μL His6-PDK1 (aa 52-556) 3.33 ng/well) and PDKtide (KTFCGTPEYLAPEVRRE […]), synthesised by Pepceuticals Limited, Nottingham, United Kingdom; 25 μM final concentration); His6-PDK1 and PDKtide are together diluted accordingly in assay buffer (50 mM tris pH 7.5, 0.05% β-mercaptoethanol, 10 mM Mg-acetate); PDKtide is present in this mixture as an 83.3 μM solution. These 30 μl are routinely incubated for 30 min at RT. • 3. 20 μL ATP solution (25 μM ATP with 1.0 μCi/well gamma-P33-ATP). The final concentration of Tween 20 is 0.005%.
The reaction is started by adding the ATP solution and the mixture is incubated for 90 min at RT. At the start of the reaction the dishes are shaken gently. The reaction is stopped by the addition of 50 μL/well of 500 mM phosphoric acid (H3PO4) and incubated for about 20 min at RT. The precipitate is transferred by harvesting onto filter plates (96-well microtitre filter plate: UniFilter GF/C; Perkin Elmer; No. 6005174), then washed 6 times with 50 mM H3PO4 and dried at 60° C. Then the plate is stuck down with sealing tape, 25 μL/well of scintillation solution (Microscint 0; Perkin Elmer; No. 6013611) are added and the amount of P33 precipitated is measured using the Wallac Betacounter. The measured data are evaluated using Graphpad Prism software.
As to `Cc1nc2cnc3ccc(C#CCNC(=O)c4cccn([C@H](CO)c5cccc(F)c5)c4=O)cc3c2n1C(C)C` [II-6], the IC50 was 0.001 µM.

For `Cc1nc2cnc3ccc(C#CCNC(=O)c4cccn([C@@H](C)c5ccc(F)c(F)c5)c4=O)cc3c2n1C1CCN(C(C)C)CC1` [II-32], the IC50 stood at 0.003 µM.

With `CN1CCC[C@@H](n2cnc3cnc4ccc(C#CCNC(=O)c5cc(Cl)nn(Cc6ccc(F)c(F)c6)c5=O)cc4c32)C1` [III-18], the IC50 is 0.787 µM.

As to `CN1CC[C@@H](n2cnc3cnc4ccc(C#CCNC(=O)c5cccn(Cc6ccc(F)c(F)c6)c5=O)cc4c32)C1` [III-15], the IC50 worked out at 0.02 µM.

Take `O=C(NCC#Cc1ccc2ncc3ncn([C@@H]4CCNC4)c3c2c1)c1cncn(Cc2ccc(F)c(F)c2)c1=O` [I-13]: the IC50 is 0.016 µM.

Take `CCOc1cc(C(=O)NCC#Cc2ccc3ncc4ncn(C(C)C)c4c3c2)c(=O)n(Cc2ccc(F)c(F)c2)n1` [IV-1, 2-(3,4-difluorobenzyl)-6-ethoxy-3-oxo-2,3-dihydro-pyridazine-4-carboxylic acid [3-(1-isopropyl-1H-imidazo[4,5-c]quinolin-8-yl)-prop-2-ynyl]-amide]: the IC50 stood at 0.005 µM.

On to `Cn1c(-c2ccccc2)nc2cnc3ccc(C#CCNC(=O)c4cncn(Cc5ccc(F)c(F)c5)c4=O)cc3c21` [V-2], for which the IC50 was determined as 0.072 µM.

As to `COc1cc(C(=O)NCC#Cc2ccc3ncc4nc(C)n(C(C)C)c4c3c2)c(=O)n(Cc2ccc(F)c(F)c2)n1` [II-19], the IC50 was determined as 0.001 µM.

On to `Cc1nc2cnc3ccc(C#CCNC(=O)c4cccn([C@@H](CN)c5ccccc5)c4=O)cc3c2n1C(C)C` [II-22], for which the 50% inhibitory concentration (IC50) amounted to 0.016 µM.

For the compound `Cc1nc2cnc3ccc(C#CCNC(=O)c4cc(Cl)nn(Cc5ccc(F)c(F)c5)c4=O)cc3c2n1C(C)C` [II-4], the IC50 was 0.005 µM.

For `Cn1c(CF)nc2cnc3ccc(C#CCNC(=O)c4cncn(Cc5ccc(F)c(F)c5)c4=O)cc3c21` [V-6, 1-(3,4-difluoro-benzyl)-6-oxo-1,6-dihydro-pyrimidine-5-carboxylic acid [3-(2-fluoromethyl-1-methyl-1H-imidazo[4,5-c]quinolin-8-yl)-prop-2-ynyl]-amide], the IC50 worked out at 0.019 µM.

For `Cc1nc2cnc3ccc(C#CCNC(=O)c4cccn([C@H](CO)c5ccc(F)c(F)c5)c4=O)cc3c2n1C(C)C` [II-9], the half-maximal inhibitory concentration (IC50) came to 0.002 µM.

On to `Cc1cc(C(=O)NCC#Cc2ccc3ncc4ncn([C@H]5CC[C@@H](N(C)C)CC5)c4c3c2)c(=O)n(Cc2ccc(F)c(F)c2)n1` [III-3], for which the IC50 was 0.015 µM.

On to `CN(C)[C@H]1CC[C@@H](n2cnc3cnc4ccc(C#CCNC(=O)c5cccn([C@@H](CO)c6cccc(F)c6)c5=O)cc4c32)CC1` [III-27], for which the half-inhibitory concentration (IC50) worked out at 0.003 µM.

On to `Cc1nc2cnc3ccc(C#CCNC(=O)c4cccn([C@@H](C)C5CCCCC5)c4=O)cc3c2n1C(C)C` [II-14], for which the IC50 came out at 0.034 µM.

With `CN1CCC[C@@H](n2cnc3cnc4ccc(C#CCNC(=O)c5cncn(Cc6ccc(F)c(F)c6)c5=O)cc4c32)C1` [I-9], the IC50 was 0.01 µM.

For `NC[C@@H](c1ccccc1)n1cccc(C(=O)NCC#Cc2ccc3ncc4ncn(C5CCOC5)c4c3c2)c1=O` (some centres unmarked) [III-29], the half-maximal inhibitory concentration (IC50) worked out at 0.681 µM.

Consider `Cc1nc2cnc3ccc(C#CCNC(=O)c4cncn(Cc5ccc(F)c(F)c5)c4=O)cc3c2n1C(C)C` [II-10], for which the IC50 turned out to be 0.002 µM.

Turning to `Cn1cnc2cnc3ccc(C#CCNC(=O)c4cncn(Cc5ccc(F)c(F)c5)c4=O)cc3c21` [III-30], the half-maximal inhibitory concentration (IC50) was determined as 0.005 µM.

Turning to `O=C(NCC#Cc1ccc2ncc3ncn(CCO)c3c2c1)c1cccn(Cc2ccccc2)c1=O` [III-12], the half-maximal inhibitory concentration (IC50) turned out to be 0.068 µM.

With `Cc1cc(C(=O)NCC#Cc2ccc3ncc4nc(C)n(C(C)C)c4c3c2)c(=O)n([C@@H](C)c2ccc(F)c(F)c2)n1` [II-11], the half-inhibitory concentration (IC50) came out at 0.07 µM.

Consider `CN(C)CCn1cnc2cnc3ccc(C#CCNC(=O)c4cncn(Cc5ccc(F)c(F)c5)c4=O)cc3c21` [I-5], for which the IC50 is 0.05 µM.

As for `O=C(NCC#Cc1ccc2ncc3ncn(CCO)c3c2c1)c1cncn(Cc2ccc(F)c(F)c2)c1=O` [I-2], the IC50 was determined as 0.004 µM.

The term IC50 denotes the midpoint of a concentration-inhibition curve.
